Blank lines part the entries; values can stand above or below the molecule they belong to.
Key:
A549 cells = assay: A549 cell molecular profiling experiment; assay type: cell-based; conditions: for Up-regulated genes in category DMSO (<0%) / Up-regulated genes in category Full (≧90%) / Up-regulated genes in category High (66.7-90%) / Up-regulated genes in category Low (0-33.3%) / Up-regulated genes in category Middle (33.3-66.7%): set of 1091 genes; for Down-regulated genes in category DMSO (<0%) / Down-regulated genes in category Full (≧90%) / Down-regulated genes in category High (66.7-90%) / Down-regulated genes in category Low (0-33.3%) / Down-regulated genes in category Middle (33.3-66.7%): set of 1249 genes
[1] = biological target: T1, MR (mineralocorticoid receptor) (Homo sapiens, UniProt P08235); assay: MR binding study
T1 sequence (P08235 1-984): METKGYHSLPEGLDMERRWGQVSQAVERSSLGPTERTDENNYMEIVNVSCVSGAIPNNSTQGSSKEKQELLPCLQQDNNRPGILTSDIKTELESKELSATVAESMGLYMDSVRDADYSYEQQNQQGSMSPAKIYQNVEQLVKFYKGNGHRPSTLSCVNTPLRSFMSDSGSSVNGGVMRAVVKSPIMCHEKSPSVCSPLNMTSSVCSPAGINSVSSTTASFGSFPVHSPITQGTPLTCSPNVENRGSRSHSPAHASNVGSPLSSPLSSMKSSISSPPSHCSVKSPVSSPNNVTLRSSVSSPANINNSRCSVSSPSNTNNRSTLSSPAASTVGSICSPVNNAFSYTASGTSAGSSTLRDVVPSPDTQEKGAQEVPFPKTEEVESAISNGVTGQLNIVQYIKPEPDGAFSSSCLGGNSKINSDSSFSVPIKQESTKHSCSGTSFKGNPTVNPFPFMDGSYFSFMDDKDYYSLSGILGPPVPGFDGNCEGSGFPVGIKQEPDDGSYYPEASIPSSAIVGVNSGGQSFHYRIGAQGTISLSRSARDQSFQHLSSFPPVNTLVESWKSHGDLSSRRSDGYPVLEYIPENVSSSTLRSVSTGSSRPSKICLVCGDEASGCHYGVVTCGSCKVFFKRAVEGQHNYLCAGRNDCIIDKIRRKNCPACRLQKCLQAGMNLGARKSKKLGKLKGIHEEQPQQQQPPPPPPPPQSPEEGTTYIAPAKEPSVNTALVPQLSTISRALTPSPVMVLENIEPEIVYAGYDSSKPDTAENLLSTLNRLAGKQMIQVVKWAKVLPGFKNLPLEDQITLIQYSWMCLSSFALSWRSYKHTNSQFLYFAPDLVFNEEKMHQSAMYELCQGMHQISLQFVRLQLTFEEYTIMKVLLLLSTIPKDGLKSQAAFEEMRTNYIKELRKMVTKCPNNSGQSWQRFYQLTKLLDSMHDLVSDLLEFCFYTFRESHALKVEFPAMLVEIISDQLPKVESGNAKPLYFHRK
From the text: The following abbreviations are used in Table II: MR, mineralocorticoid receptor; GR, glucocorticoid receptor; and PR, progesterone receptor.

Glucocorticoid Receptor [2] = biological target: T2, Glucocorticoid Receptor (Homo sapiens, UniProt P04150); assay: Classification of effect on the glucocorticoid receptor; assay type: cell-based; design: host or cells: COS cells; conditions: as assessed by MDA and A549 transactivation and COS transrepression assays
T2 sequence (P04150 1-777): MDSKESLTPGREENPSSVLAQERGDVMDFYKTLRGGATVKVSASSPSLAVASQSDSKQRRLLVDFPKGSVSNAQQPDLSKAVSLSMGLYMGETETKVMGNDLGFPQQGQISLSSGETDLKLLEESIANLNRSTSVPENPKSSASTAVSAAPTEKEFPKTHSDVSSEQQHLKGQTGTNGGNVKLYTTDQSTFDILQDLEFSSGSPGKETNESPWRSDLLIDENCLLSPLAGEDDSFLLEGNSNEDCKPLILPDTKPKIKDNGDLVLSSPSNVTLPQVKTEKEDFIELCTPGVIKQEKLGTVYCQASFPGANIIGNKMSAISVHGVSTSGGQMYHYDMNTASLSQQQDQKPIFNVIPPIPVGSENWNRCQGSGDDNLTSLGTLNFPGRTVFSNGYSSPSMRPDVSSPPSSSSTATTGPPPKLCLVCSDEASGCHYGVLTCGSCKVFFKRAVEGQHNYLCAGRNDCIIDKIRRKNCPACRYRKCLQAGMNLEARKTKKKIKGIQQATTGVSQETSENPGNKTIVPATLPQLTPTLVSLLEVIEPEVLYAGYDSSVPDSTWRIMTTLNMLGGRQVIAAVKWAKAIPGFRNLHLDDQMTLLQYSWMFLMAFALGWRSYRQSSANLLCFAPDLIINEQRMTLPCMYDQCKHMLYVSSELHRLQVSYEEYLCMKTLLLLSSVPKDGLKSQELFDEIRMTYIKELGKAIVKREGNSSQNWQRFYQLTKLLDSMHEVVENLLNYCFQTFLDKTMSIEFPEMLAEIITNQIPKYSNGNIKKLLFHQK

CA77 cells [3] = assay: CA77 cell assay, real-time RT-PCR (TaqMan); assay type: cell-based, rat
Method: Assay: CA77 cells were plated into 96 well tissue culture dishes at a density of 8×10^4 cells per well in 200 μl of PM and the cultures maintained in a humidified air atmosphere (7.5% CO2) at 37° C. This media was aspirated after 24 hours and replaced with 200 μl of GM and the cultures incubated as before, for an additional 48 hours, at which time the cultures were at approximately 90% confluency.
For the evaluation of agonist activity, the GM was aspirated, replaced with 200 μl of fresh GM containing concentrations of a drug ranging from 0.1 nM to 10,000 nM in a 10-fold dilution series. Control wells of 0 nM drug in GM and 0.1% DMSO in GM were included in the series for each drug. Each drug concentration and the two controls were evaluated on 4 wells. The cultures were maintained in a humidified air atmosphere (7.5% CO2) at 37° C. for 24 hours.
Control wells of 0 nM drug in GM containing 250 nM corticosterone and 0.1% DMSO in GM (without corticosterone) were included in the series for each drug. Each drug concentration and the two controls were evaluated on 4 wells. The cultures were maintained in a humidified air atmosphere (7.5% CO2) at 37° C. for 24 hours.
Lysis of Cells and Isolation of mRNA: Two methods were employed for the lysis of the cells and the isolation of mRNA at the end of the 24-hour incubation with the drugs.
One method was the mRNA Catcher™ Method (using Kit number 37001, sold by Invitrogen Corporation). The GM was aspirated from the cells, the cell monolayer was washed once with PBS (product number 10010, sold by Invitrogen Corporation), and then the cells were lysed in 30 μl of the kit lysis buffer containing 1% β-ME for 5 minutes at room temperature. The lysates were snap frozen in the 96-well plate by placing the plate on dry ice pellets, and the plate was then stored at −80° C.
The lysates were thawed at room temperature and then transferred into individual wells in the mRNA Catcher™ plate. The plate was covered and incubated for 90 minutes at room temperature for RNA hybridization. […]

RGS2 and RGS4 mRNA = conditions: cited from earlier work
CA77 cells [4] = assay: CA77 cell microarray profiling; assay type: cell-based, rat
Method: In order to reduce false positives, progesterone, estradiol, and aldosterone served as out-groups for non-specific effects. Samples were collected at both 6 hours and 24 hours after contacting the CA77 cells with a compound.

Glucocorticoid Receptor [5] = biological target: T2, Glucocorticoid Receptor; assay: Transactivation assay, A549 cells; assay type: cell-based
Glucocorticoid Receptor [6] = biological target: T2, Glucocorticoid Receptor; assay: Transrepression assay, COS cells; assay type: cell-based; design: host or cells: COS cells
Glucocorticoid Receptor [7] = biological target: T2, Glucocorticoid Receptor; assay: Transactivation assay, MDA cells; assay type: cell-based; design: host or cells: MDA cells; conditions: maximal response
[8] = system: RGS2, RGS4 and Sult1a1 gene expression; assay: In vivo RT-PCR of rat caudate and raphe nucleus (Example 1)
From the text: Cross-hatched bars represent RGS2 gene expression. Unhatched bars represent RGS4 gene expression. ** p=0.003. * p=0.001.
Cross-hatched bars represent Sult1a1 gene expression in the caudate nucleus. Unhatched bars represent Sult1a1 gene expression in the raphe nucleus. *p<0.001.

Sult1a1 = assay: In vivo Sult1a1 expression assay (Example 2); design: species or system rat; conditions: co-administered with dexamethasone
Method: Methods: […] […] The rats were sacrificed 6 hours after the final dose and the hippocampus, raphe and caudate nucleus were dissected and placed in […]® (Qiagen, Valencia, Calif.) for 24 hours. The tissue was then placed in a fresh tube and stored at -80 C. Total RNA was prepared using Trizol® (InVitrogen, Carlsbad, Calif.) using the manufacturer's standard protocol. The total RNA was DNase treated and cDNA was made using the methods described in Example 1 in connection with CA77 cell cDNA preparation.

IC50 [1]: 0.98 nM | Effect on the glucocorticoid receptor (degree of agonist activity) (Glucocorticoid Receptor [2]): full agonist activity
Compound: C[C@]12C=CC(=O)C=C1CC[C@@H]1[C@@H]2[C@@H](O)C[C@@]2(C)[C@H]1CC[C@]2(O)C(=O)CO [Prednisolone, prednisolone]
Up-regulated genes in category DMSO (<0%) (A549 cells; 100 nM): 0 | Up-regulated genes in category Full (≧90%) (A549 cells; 100 nM): 940 | Up-regulated genes in category High (66.7-90%) (A549 cells; 100 nM): 150 | Up-regulated genes in category Low (0-33.3%) (A549 cells; 100 nM): 0 | Up-regulated genes in category Middle (33.3-66.7%) (A549 cells; 100 nM): 1 | Down-regulated genes in category DMSO (<0%) (A549 cells; 100 nM): 0 | Down-regulated genes in category Full (≧90%) (A549 cells; 100 nM): 1140 | Down-regulated genes in category High (66.7-90%) (A549 cells; 100 nM): 109 | Down-regulated genes in category Low (0-33.3%) (A549 cells; 100 nM): 0 | Down-regulated genes in category Middle (33.3-66.7%) (A549 cells; 100 nM): 0

EC50 (CA77 cells [3]; Rattus norvegicus, CA77 cell assay): 250 nM
Compound: C[C@]12C[C@H](O)[C@H]3[C@@H](CCC4=CC(=O)CC[C@@]43C)[C@@H]1CC[C@@H]2C(=O)CO [corticosterone]

Transactivation, A549 Emax (Glucocorticoid Receptor [5]; maximal response): 124% | Transrepression, COS % Emax, 0.3 μM (Glucocorticoid Receptor [6]; 0.3 μM): 100% | Transrepression, COS % Emax, 1 uM (Glucocorticoid Receptor [6]; 1 uM): 100% | Transactivation, MDA Emax (Glucocorticoid Receptor [7]): 104%
Compound: C[C@H]1C[C@@H]2[C@H]([C@@H](O)C[C@@]3(C)[C@H]2CC[C@]3(O)C(=O)CO)[C@@]2(C)C=CC(=O)C=C12 [M-Prednisolone, 6α-methylprednisolone]
RGS4 expression in caudate nucleus ([8]; down-regulated): about 50 % of control levels | RGS2 expression in caudate nucleus ([8]; upregulated vs vehicle): 2 fold

Continued, molecule first:

Compound: O=C(CCCN1CCC(O)(c2ccc(Cl)cc2)CC1)c1ccc(F)cc1 [haloperidol]
RGS2 mRNA (RGS2 and RGS4 mRNA): up-regulated | RGS4 mRNA levels (RGS2 and RGS4 mRNA): down-regulation

Compound: C[C@]12CCC(=O)C=C1CC[C@@H]1[C@@H]2[C@@H](O)C[C@]2(C=O)[C@@H](C(=O)CO)CC[C@@H]12 [aldosterone]
Activity in the GR agonist signature at 6 hours (CA77 cells [4]; 6 hours): little or no activity | Presence of the GR agonist signature (CA77 cells [4]; response at 24 hours): weakly present

Compound: CC#C[C@]1(O)CC[C@H]2[C@@H]3CCC4=CC(=O)CCC4=C3[C@@H](c3ccc(N(C)C)cc3)C[C@@]21C [RU-486, mifepristone]
Emax (Glucocorticoid Receptor [5]; A549, read-out: Transactivation, A549 Emax): 90% | Emax at 1 µM (Glucocorticoid Receptor [6]; COS, read-out: Transrepression, COS % Emax, 1 uM): 40% | Up-regulated genes in category DMSO (<0%) (A549 cells; 1 μm): 287 | Up-regulated genes in category Full (≧90%) (A549 cells; 1 μm): 38 | Up-regulated genes in category High (66.7-90%) (A549 cells; 1 μm): 63 | Up-regulated genes in category Low (0-33.3%) (A549 cells; 1 μm): 449 | Up-regulated genes in category Middle (33.3-66.7%) (A549 cells; 1 μm): 254 | Down-regulated genes in category DMSO (<0%) (A549 cells; 1 μm): 454 | Down-regulated genes in category Full (≧90%) (A549 cells; 1 μm): 41 | Down-regulated genes in category High (66.7-90%) (A549 cells; 1 μm): 70 | Down-regulated genes in category Low (0-33.3%) (A549 cells; 1 μm): 418 | Down-regulated genes in category Middle (33.3-66.7%) (A549 cells; 1 μm): 266 | Effect on dexamethasone-induced Sult1a1 upregulation in the hippocampus (Sult1a1): reversal of this effect | Effect on up-regulation of RGS2, Sult1a1, IL6R and SGK by a GR agonist (CA77 cells [3]; CA77 cells, co-administered with dexamethasone): reversal of this effect | Effect on the glucocorticoid receptor (degree of agonist activity) (Glucocorticoid Receptor [2]): low partial agonist activity

— patent US20100040552A1, “METHODS TO EVALUATE GLUCOCORTICOID RECEPTOR AGONISTS AND ANTAGONISTS FOR EFFECTS ON NEURON-LIKE CELLS” (ROSETTA INPHARMATICS LLC, priority 2005, published 2010)
